This is an account of results in ChEMBL document CHEMBL1151293, “End-Product Regulation of Ergot Alkaloid Formation in Intact Cells and Protoplasts of Claviceps Species, Strain SD 58” (1980).

For orientation: inhibition means the drop in the measured response relative to a control, in per cent.

Assay [1] concerns Claviceps. In words: Inhibition of DMAT synthase in Claviceps SD 58 assessed as conversion of 1-14C]dimethylallylpyrophosphate to dimethylallyltryptophan at 3 mM after 5 days. Further details: scale not given: the % may be the effect or the level left.
Assay [2] has as its system Claviceps. In words: Inhibition of alkaloid biosynthesis in intact cells of Claviceps SD 58 assessed as incorporation of L-[methylene-14C] tryptophan at 3 mM. Format: functional.
Assay [3] concerns Claviceps. In words: Inhibition of alkaloid biosynthesis in intact cells of Claviceps SD 58 assessed as incorporation of L-[methylene-14C] tryptophan at 3 mM after 24 hrs relative to control. Format: functional.
The test system of assay [4] is Claviceps. Nature of the assay: Inhibition of alkaloid biosynthesis in Claviceps SD 58 protoplast assessed as incorporation of L-[methylene-14C] tryptophan at 4 mM relative to control. Type of assay: functional. Also on record: scale not given: the % may be the effect or the level left.

In the case of `CN1CC(CO)=C[C@@H]2c3cccc4[nH]cc(c34)C[C@H]21` [listing 1 of 3 here], in the assay on Claviceps [1], the Activity is 70%.
On to `CN1CC(CO)=C[C@@H]2c3cccc4[nH]cc(c34)C[C@H]21` [listing 2 of 3 here], for which the inhibition at 3000 µM in the assay with Claviceps [2] was found to be 29%.
Turning to `CN1CC(CO)=C[C@@H]2c3cccc4[nH]cc(c34)C[C@H]21` [listing 3 of 3 here], the “fold change (FC)” value with Claviceps [3] was 2. Besides, in the assay with Claviceps [4], the Activity stood at 50%.
Regarding `CC1=C[C@@H]2c3cccc4[nH]cc(c34)C[C@H]2N(C)C1`, in the assay with Claviceps [1], the Activity came to 90%.
